According to patent US9889105B2, “In vivo method for treating, inhibiting, and/or prophylaxis of cancer, such as pancreatic cancer” (U.S. Department of Veterans Affairs, priority 2010, dated 2018):

Experiments:
[1] = in vivo; cited from earlier work
[2] = tested on: MIA-PaCa-2 xenograft tumor; assay: Apoptosis in xenograft tumors (cleaved caspase 3, TUNEL, Bax/Bcl-2); type: in vivo, athymic (nude) mice; settings: xenograft tumors
Experimental: FIG. 6C illustrates apoptosis. Top, tumor tissues were processed for Cleaved Caspase 3 immunohistochemistry. […] Caspase 3, Bax and Bcl-2 (middle) expressions of pancreatic tumors from same crocetinic acid-treated and control animals using Western Blot were carried out and Bax/Bcl-2 ratio was also determined (bottom). Columns, mean from six different animals; bars, SD (B and C). *, P<0.05; **, P<0.001 versus untreated control (Student's t test);
To explore whether the regression of tumor growth by crocetin is due to inhibition of proliferation, apoptotic cell death or both, we first evaluated PCNA (proliferating cell nuclear antigen) expression and then EGFR expression in tumors using histochemical analysis. […] Next, apoptosis by TUNEL assay was investigated in the tumors of mice treated with or without crocetin.

EGFR = EGFR expression and phosphorylation in xenograft tumors (immunohistochemistry, Western blot); type: in vivo, athymic (nude) mice
Experimental: FIG. 6B illustrates expression of EGFR and Akt. Tissue sections were obtained from human pancreatic cancer tumors growing in nude mice as described in FIG. 5, and stained for pEGFR and pAkt as described in Materials and Methods section (below). Middle, EGFR and Akt expression of pancreatic tumors from same crocetinic acid-treated and untreated control animals using Western Blot as described in FIG. 4B, was determined. Phophorylated (p-EGFR) and total protein of EGFR and phophorylated Akt and total Akt expressed as ratio between them normalized with b-actin was shown (bottom);
The immuno-Western blot analyses were the same as described earlier by Banerjee et al. (Reference 26). Briefly, MIA-PaCa-2 and BxPC-3 cells following treatment with or without crocetin and tumor samples were homogenized. […] Protein concentration was measured by using the Comassie blue reagent assay (Pierce, Rockford, Ill.). […] The antigen-antibody reactions were detected with HRP-conjugated anti-rabbit or anti-mouse IgG for one hour in room temperature. Immunoreactions were visualized by the ECL ([…]) chemiluminescence reagent kit (Pierce, Rockford, Ill.) and relative expression of proteins were calculated by densitometric analyses using ID image Analysis Software version 3.6 (Eastman Kodak Company, Rochester, N.Y.). […]

## CC(/C=C/C=C(\C)C(=O)O)=C\C=C\C=C(C)\C=C\C=C(/C)C(=O)O [crocetin]
[1]
  LD50: 2000 mg/kg
[2]; Western blot
  ratio of Bax/Bcl-2 in pancreatic tumors: significantly increased
[2]; versus untreated
  TUNEL assay positive cells in tumors: elevated markedly
EGFR
  EGFR activity (ratio of phosphorylated and unphosphorylated form) in tumors: significantly impaired
EGFR; versus untreated
  EGFR expression and phosphorylation in tumors: significantly reduced
